Measured values reported in paper PMC7613998, “Development of selective inhibitors of phosphatidylinositol 3-kinase C2α” (Nature Chemical Biology, 2022).

Columns and labels:
Experiment in all cases: biochemical
CAMKK2 (CaMKK beta) = CAMKK2 (CaMKK beta) (Homo sapiens, UniProt Q96RR4); parameters: SelectScreen LanthaScreen kinase binding assay, per cent tracer displacement, mean of two points; settings: tracer displacement
DYRK1B = DYRK1B (Homo sapiens, UniProt Q9Y463); parameters: SelectScreen Z'-LYTE purified kinase panel, per cent inhibition, mean of two points; settings: (μM)=Km app
PI3KC2β = target: T1, PI3KC2β (Homo sapiens, UniProt O00750); parameters: ADP-Glo lipid kinase assay with liver PI substrate, luminescence; settings: read-out: PITCOIN3 (IC50)
T1 construct: gene PIK3C2B

PIP5K1B = PIP5K1B (Homo sapiens, UniProt O14986); parameters: SelectScreen Adapta purified lipid kinase panel, 1 uM compound, 10 uM ATP, per cent inhibition; settings: ATP=10; Technology=Adapta; 10 uM ATP
Outline: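 Purified lipid kinases screened with inhibitors at 1 µM in the presence of 10 µM ATP; data are mean ± SD of two independent experiments.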

Chain of DYRK1B (Q9Y463 whole entry): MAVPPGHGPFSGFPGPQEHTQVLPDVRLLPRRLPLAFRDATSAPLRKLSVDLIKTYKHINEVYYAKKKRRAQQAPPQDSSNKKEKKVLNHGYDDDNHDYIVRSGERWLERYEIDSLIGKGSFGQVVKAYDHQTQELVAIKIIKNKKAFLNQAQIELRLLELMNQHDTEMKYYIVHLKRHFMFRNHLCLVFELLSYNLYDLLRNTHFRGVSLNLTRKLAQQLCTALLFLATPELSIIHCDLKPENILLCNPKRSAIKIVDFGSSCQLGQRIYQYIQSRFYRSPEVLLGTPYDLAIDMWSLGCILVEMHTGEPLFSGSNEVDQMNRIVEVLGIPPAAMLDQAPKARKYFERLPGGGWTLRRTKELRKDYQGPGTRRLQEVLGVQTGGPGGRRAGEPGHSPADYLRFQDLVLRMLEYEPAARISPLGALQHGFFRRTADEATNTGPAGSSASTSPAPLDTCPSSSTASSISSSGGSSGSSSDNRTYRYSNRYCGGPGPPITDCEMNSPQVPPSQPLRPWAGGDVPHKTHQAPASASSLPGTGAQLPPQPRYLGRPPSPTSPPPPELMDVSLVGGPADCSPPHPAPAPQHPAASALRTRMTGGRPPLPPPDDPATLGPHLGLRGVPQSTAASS
Chain of CAMKK2 (CaMKK beta) (Q96RR4 whole entry): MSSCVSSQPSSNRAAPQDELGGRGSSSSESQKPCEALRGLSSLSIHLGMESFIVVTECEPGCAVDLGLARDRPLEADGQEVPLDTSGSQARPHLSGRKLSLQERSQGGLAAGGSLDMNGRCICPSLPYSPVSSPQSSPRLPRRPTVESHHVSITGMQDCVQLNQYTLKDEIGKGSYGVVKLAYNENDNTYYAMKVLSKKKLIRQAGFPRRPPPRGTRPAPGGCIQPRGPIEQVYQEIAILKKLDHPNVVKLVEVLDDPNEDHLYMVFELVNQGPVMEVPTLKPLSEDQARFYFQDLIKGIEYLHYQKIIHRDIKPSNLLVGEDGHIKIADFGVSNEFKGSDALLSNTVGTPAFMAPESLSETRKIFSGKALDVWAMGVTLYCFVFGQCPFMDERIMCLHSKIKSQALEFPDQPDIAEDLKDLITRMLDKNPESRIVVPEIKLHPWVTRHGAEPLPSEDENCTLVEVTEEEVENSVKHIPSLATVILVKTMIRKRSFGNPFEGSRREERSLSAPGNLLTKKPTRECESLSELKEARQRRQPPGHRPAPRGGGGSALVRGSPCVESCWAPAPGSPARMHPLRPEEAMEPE
Chain of PIP5K1B (O14986 whole entry): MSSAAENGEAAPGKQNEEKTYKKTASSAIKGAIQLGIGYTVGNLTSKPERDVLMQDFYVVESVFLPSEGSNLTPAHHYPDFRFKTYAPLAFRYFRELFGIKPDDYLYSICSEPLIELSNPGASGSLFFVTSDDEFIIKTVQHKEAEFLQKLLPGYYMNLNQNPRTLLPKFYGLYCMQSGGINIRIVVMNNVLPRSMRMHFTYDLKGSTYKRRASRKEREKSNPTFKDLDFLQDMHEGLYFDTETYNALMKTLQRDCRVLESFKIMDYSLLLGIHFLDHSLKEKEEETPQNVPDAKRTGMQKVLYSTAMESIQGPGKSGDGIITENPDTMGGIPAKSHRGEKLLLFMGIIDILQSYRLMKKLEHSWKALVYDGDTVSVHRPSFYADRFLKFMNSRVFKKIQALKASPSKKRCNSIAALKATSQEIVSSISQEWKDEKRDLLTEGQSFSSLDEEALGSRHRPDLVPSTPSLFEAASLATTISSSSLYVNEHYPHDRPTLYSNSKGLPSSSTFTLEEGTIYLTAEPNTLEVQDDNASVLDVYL
T1 sequence (O00750 whole entry): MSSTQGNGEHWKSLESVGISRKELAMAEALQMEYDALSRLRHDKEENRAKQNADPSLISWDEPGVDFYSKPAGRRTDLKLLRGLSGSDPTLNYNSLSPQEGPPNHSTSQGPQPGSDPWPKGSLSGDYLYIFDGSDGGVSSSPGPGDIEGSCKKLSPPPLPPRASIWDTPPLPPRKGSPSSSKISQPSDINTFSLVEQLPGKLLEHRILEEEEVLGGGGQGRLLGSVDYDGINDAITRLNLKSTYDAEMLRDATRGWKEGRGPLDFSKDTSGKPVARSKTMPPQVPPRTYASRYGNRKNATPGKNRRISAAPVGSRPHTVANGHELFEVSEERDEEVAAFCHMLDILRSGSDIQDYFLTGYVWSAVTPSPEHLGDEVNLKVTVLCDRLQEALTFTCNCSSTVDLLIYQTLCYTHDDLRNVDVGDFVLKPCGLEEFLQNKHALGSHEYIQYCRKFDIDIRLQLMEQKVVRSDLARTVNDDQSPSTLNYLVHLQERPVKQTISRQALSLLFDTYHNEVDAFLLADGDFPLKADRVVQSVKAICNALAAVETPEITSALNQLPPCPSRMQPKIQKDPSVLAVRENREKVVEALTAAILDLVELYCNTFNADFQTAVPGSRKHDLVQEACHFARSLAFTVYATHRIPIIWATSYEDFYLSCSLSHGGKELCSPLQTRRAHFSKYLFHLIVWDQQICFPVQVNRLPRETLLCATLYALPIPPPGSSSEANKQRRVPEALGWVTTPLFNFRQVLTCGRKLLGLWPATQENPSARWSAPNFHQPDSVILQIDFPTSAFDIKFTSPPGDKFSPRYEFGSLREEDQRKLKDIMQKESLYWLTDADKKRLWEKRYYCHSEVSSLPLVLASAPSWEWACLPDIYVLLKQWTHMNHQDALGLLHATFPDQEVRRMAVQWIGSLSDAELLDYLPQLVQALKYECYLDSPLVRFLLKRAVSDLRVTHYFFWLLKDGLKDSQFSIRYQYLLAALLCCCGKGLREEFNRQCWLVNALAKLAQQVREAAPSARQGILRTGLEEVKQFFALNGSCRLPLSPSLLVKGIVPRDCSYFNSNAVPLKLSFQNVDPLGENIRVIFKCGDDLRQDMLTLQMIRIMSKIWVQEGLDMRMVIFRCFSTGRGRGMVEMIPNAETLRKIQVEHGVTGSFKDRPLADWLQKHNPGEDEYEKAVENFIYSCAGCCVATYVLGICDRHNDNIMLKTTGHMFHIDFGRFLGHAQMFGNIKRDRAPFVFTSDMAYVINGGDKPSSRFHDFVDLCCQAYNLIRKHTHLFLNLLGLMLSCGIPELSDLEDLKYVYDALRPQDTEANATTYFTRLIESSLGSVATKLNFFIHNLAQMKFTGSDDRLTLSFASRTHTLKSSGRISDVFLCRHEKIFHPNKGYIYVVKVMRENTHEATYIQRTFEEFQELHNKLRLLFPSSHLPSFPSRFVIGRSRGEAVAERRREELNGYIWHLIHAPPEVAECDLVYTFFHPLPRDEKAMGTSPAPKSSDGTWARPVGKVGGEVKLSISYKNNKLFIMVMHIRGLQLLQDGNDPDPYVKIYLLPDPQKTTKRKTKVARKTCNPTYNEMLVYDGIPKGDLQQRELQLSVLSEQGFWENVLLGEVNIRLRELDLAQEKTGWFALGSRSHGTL

inhibition at 1 µM (CAMKK2 (CaMKK beta)) [%]	inhibition at 3 µM (CAMKK2 (CaMKK beta)) [%]	inhibition at 10 µM (CAMKK2 (CaMKK beta)) [%]	inhibition at 1 µM (DYRK1B) [%]	inhibition at 3 µM (DYRK1B) [%]	inhibition at 10 µM (DYRK1B) [%]	IC50 (PI3KC2β) [µM]	inhibition at 1 µM (PIP5K1B) [%]	Compound
2.3	4.67	4.93	-3	-3.02	-2.65	> 10	–	CS(=O)(=O)Nc1cccc(-c2csc(NC(=O)CSc3nc4nccnc4c(=O)n3CCc3ccccc3)n2)c1 [compound 3, PITCOIN3]
-0.673	-0.395	3.84	-3.1	-1.26	-0.107	–	5	O=C(CSc1nc2nccnc2c(=O)n1CCc1ccccc1)Nc1nccs1 [compound 1, PITCOIN1]
–	–	–	–	–	–	–	-1	O=C(CSc1nc2nccnc2c(=O)n1CCc1ccccc1)Nc1nc(-c2cccc(O)c2)cs1 [compound 2, PITCOIN2]
